According to BindingDB's records for patent US11897867 (Bayer Aktiengesellschaft, 2024):
pIC50: −log10 of the molar value.

What was measured:
[1] = molecular target: cGMP-inhibited 3',5'-cyclic phosphodiesterase 3A (Homo sapiens, UniProt Q14432); assay: PDE3A Enzyme Inhibition
Experimental: (§1) The commercially available 3H-cAMP Scintillation Proximity Assay (SPA, Perkin Elmer) system was used for enzyme inhibition studies. For the determination of the in vitro effect of test substances on the PDE3A reactions 2 μl of the respective test compound solution in DMSO (serial dilutions) were is placed in wells of microtiter plates (Isoplate-96/200W; Perkin Elmer). 50 μl of a dilution of PDE3A cell extract from Sf9 cells overexpressing human full length PDE3A (SB Drug Discovery, UK) in buffer A (50 mM Tris/HCl pH 7.5, 8.3 mM MgCl2, 1.7 mM EDTA, 0.2% BSA) was added. The dilution of the PDE3A cell extract was chosen such that the reaction kinetics was linear and less than 70% of the substrate was consumed (typical dilution 1:5000). The reaction was started by addition of 50 μl (0.025 μCi) of 1:2000 in buffer A w/o BSA diluted substrate [8-3H] adenosine 3′,5′-cyclic phosphate (1 μCi/μl; Perkin Elmer). After incubation at room temperature for 60 min, the reaction was stopped by addition of 25 μl of a suspension containing 18 mg/ml yttrium scintillation proximity beads (Perkin Elmer) in water. The microtiter plates were sealed and measured in a Microbeta scintillation counter (PerkinElmer Wallac). IC50 values were determined from sigmoidal curves by plotting percentage PDE3A activity vs log compound concentration.

[2] = molecular target: cGMP-inhibited 3',5'-cyclic phosphodiesterase 3B (Homo sapiens, UniProt Q13370); assay: PDE3B Enzyme Inhibition
Sequence of cGMP-inhibited 3',5'-cyclic phosphodiesterase 3B (Q13370 whole entry): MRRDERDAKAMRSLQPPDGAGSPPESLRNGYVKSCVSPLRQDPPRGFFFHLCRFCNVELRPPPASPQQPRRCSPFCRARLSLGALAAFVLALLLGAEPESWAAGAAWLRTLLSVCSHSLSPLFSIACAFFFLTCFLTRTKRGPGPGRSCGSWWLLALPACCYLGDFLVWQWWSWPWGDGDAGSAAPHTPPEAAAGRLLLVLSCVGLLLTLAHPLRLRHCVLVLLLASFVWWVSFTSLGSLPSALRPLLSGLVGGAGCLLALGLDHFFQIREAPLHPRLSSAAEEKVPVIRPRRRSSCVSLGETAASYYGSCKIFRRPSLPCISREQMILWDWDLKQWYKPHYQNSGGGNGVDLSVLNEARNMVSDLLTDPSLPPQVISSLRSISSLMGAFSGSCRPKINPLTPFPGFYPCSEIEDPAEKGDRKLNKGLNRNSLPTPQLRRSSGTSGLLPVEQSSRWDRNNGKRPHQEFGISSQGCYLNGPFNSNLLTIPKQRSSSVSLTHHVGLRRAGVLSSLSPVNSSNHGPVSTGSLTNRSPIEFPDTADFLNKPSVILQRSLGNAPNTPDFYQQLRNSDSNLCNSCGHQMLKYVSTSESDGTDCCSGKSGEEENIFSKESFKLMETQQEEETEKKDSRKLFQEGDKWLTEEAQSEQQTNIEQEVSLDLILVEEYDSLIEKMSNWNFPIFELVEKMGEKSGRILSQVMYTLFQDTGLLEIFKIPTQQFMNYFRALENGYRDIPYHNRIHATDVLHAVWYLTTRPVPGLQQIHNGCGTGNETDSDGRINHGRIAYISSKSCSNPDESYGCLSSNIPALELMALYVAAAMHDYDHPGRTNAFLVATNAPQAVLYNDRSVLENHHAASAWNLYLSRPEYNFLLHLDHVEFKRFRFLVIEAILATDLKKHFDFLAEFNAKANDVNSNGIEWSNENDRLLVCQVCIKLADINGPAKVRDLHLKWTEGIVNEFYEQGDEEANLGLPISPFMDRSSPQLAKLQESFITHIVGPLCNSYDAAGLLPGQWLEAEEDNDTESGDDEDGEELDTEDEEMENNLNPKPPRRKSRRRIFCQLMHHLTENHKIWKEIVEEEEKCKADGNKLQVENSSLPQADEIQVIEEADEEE
Experimental: as §1, with “PDE3B” for “PDE3A”, “were” for “were is”, “1:6000).” for “1:5000).”

Sequence of cGMP-inhibited 3',5'-cyclic phosphodiesterase 3A (Q14432 whole entry): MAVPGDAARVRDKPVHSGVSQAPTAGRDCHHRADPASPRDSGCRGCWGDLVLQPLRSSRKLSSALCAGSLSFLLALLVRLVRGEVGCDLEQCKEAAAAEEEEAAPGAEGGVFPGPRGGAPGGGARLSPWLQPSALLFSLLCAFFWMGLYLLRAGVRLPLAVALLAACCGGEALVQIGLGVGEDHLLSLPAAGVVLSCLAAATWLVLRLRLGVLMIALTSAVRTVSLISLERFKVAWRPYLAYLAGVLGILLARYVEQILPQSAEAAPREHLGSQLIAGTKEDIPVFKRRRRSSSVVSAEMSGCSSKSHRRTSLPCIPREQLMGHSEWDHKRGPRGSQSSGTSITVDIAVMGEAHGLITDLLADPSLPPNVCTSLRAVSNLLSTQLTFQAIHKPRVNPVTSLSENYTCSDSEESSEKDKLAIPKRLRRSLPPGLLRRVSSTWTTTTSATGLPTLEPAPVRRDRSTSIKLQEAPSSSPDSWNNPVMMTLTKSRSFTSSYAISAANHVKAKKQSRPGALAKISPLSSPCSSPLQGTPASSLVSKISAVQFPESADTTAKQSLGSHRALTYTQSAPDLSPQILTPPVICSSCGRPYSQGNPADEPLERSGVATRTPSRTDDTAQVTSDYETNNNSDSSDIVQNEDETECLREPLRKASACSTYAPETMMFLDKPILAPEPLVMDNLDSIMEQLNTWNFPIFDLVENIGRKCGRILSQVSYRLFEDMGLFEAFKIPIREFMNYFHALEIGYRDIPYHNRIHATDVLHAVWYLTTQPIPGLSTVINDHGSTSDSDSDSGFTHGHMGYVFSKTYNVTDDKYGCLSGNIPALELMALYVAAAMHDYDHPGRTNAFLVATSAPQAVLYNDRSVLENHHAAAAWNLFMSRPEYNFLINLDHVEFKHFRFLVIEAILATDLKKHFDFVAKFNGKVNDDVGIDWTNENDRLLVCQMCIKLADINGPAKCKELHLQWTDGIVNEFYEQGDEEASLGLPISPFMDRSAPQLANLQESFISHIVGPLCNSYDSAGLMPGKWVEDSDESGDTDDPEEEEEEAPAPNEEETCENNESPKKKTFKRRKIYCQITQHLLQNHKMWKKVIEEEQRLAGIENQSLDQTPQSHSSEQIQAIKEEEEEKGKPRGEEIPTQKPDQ

Row | SMILES | pIC50 [1] | pIC50 [2]
1 | O=C1CCC(c2ccc(-c3ccccc3C(F)(F)F)c(F)c2)=NN1 [US11897867, Example 61] | 6.36 | 6.96
2 | O=C1CCC(c2ccc(N3CCOCC3)cc2)=NN1 [US11897867, Example 123] | < 6.00 | –
